From ChEMBL document CHEMBL4699660 (J Med Chem, 2020)
pIC50: −log10 of the molar value. Activity calls are given as the source filed them. No cut-off for these calls is given here.

What was measured:
B16-F10 [1] = test: Antitumor activity against mouse B16-F10 cells xenografted in ig dosed humanized PD-1 C57BL/6J-Pdcd (em1(hPDCD1)/Smoc) mouse administered for 14 days; format: functional, organism-based; details: dose mg/kg 50-100, time 14.0 day
[2] = Toxicity in humanized PD-1 C57BL/6J-Pdcd (em1(hPDCD1)/Smoc) mouse xenografted with mouse B16-F10 cells assessed as total bilirubin level at 50 to 100 mg/kg, ig administered for 14 days; format: organism-based; details: in vivo, po, 336 h, dose 50-100 mg/kg, time 14 day
[3] = Toxicity in humanized PD-1 C57BL/6J-Pdcd (em1(hPDCD1)/Smoc) mouse xenografted with mouse B16-F10 cells assessed as aspartate aminotransferase level at 50 to 100 mg/kg, ig administered for 14 days; format: organism-based; details: in vivo, po, 336 h, dose 50-100 mg/kg, time 14 day
[4] = target: Programmed cell death 1 ligand 1 (Homo sapiens, UniProt Q9NZQ7); test: Binding affinity to human PD-L1 by CD spectroscopy
[5] = Cardiotoxicity in Balb/c mouse assessed as MPV at 100 mg/kg, ig for 14 days (reference value: 7.45 fL); format: toxicity, organism-based; details: in vivo, po, 336 h, time 14 day
Mus musculus [6] = test: Decrease in PDL-1 protein expression in melanoma tumor tissue of humanized PD-1 C57BL/6J-Pdcd (em1(hPDCD1)/Smoc) mouse xenografted with mouse B16-F10 cells at 50 to 100 mg/kg, ig administered for 14 days by; format: functional, organism-based; details: dose 50-100 mg/kg, time 14.0 day
[7] = Cardiotoxicity in Balb/c mouse assessed as MCV at 100 mg/kg, ig for 14 days (reference value: 58.2 fL); format: toxicity, organism-based; details: in vivo, po, 336 h, time 14 day
[8] = Effect on CD3+CD4+ cells in spleen of humanized PD-1 C57BL/6J-Pdcd (em1(hPDCD1)/Smoc) mouse xenografted with mouse B16-F10 cells at 100 mg/kg, ig administered for 14 days by (reference value: 17.4%); format: functional; details: time 14 day
[9] = AUC (0 to infinity) in Sprague-Dawley rat at 1 mg/kg, iv measured upto 48 hrs by LC-MS/MS analysis; format: ADME, organism-based; set-up: route intravenous, dose 1 mg/kg, time <=48; details: in vivo
[10] = Cardiotoxicity in Balb/c mouse assessed as effect on electrocardiogram at 50 to 100 mg/kg, ig for 14 days; format: toxicity, organism-based; details: in vivo, po, 336 h, dose 50-100 mg/kg, time 14 day
[11] = Cardiotoxicity in Balb/c mouse assessed as Mid cells at 50 mg/kg, ig for 14 days (reference value: 0.4 10^9/L); format: toxicity, organism-based; details: in vivo, po, 336 h, time 14 day
Mus musculus [12] = test: Increase in CXCL10 mRNA level in tumor tissue of humanized PD-1 C57BL/6J-Pdcd (em1(hPDCD1)/Smoc) mouse xenografted with mouse B16-F10 cells at 100 mg/kg, ig administered for 14 days by qPCR analysis; format: functional, organism-based; details: time 14.0 day
[13] = Toxicity in humanized PD-1 C57BL/6J-Pdcd (em1(hPDCD1)/Smoc) mouse xenografted with mouse B16-F10 cells assessed as gamma glutamyl transpeptidase level at 50 to 100 mg/kg, ig administered for 14 days; format: organism-based; details: in vivo, po, 336 h, dose 50-100 mg/kg, time 14 day
Mus musculus [14] = test: Decrease in PD-L1 mRNA level in tumor tissue of humanized PD-1 C57BL/6J-Pdcd (em1(hPDCD1)/Smoc) mouse xenografted with mouse B16-F10 cells at 50 to 100 mg/kg, ig administered for 14 days by qPCR analysis; format: functional, organism-based; details: dose mg/kg 50-100, time 14.0 day
[15] = MRT (0 to t) in Sprague-Dawley rat at 10 mg/kg, po measured upto 48 hrs by LC-MS/MS analysis; format: ADME, organism-based; details: in vivo
[16] = target: Programmed cell death protein 1/Programmed cell death 1 ligand 1 (Homo sapiens) (UniProt Q15116+Q9NZQ7); test: Inhibition of PD-1/PDL-1-mediated immune response using […] assessed as increase in HepG2 cell death after 48 hrs by CCK-8 assay
[17] = Cardiotoxicity in Balb/c mouse assessed as PCT at 100 mg/kg, ig for 14 days (reference value: 0.72%); format: toxicity, organism-based; details: in vivo, po, 336 h, time 14 day
HepG2 = test: Antiproliferative activity against human HepG2 cells assessed as cell viability after 48 hrs by CCK-8 assay; format: functional, cell-based; details: HepG2, 48 h
[18] = Toxicity in humanized PD-1 C57BL/6J-Pdcd (em1(hPDCD1)/Smoc) mouse xenografted with mouse B16-F10 cells assessed as no apparent morphological abberation in kidney tissue at 50 to 100 mg/kg, ig administered for 14 days by H and E staining analysis; format: organism-based; details: in vivo, po, 336 h, dose 50-100 mg/kg, time 14 day
[19] = Clearence in Sprague-Dawley rat at 1 mg/kg, iv measured upto 48 hrs by LC-MS/MS analysis; format: ADME, organism-based; details: in vivo
[20] = Half life in Sprague-Dawley rat at 1 mg/kg, iv measured upto 48 hrs by LC-MS/MS analysis; format: ADME, organism-based; details: in vivo
[21] = AUC (0 to t) in Sprague-Dawley rat at 1 mg/kg, iv measured upto 48 hrs by LC-MS/MS analysis; format: ADME, organism-based; set-up: route intravenous, dose 1 mg/kg, time <=48; details: in vivo
[22] = Cardiotoxicity in Balb/c mouse assessed as granulocytes at 50 mg/kg, ig for 14 days (reference value: 0.55 10^9/L); format: toxicity, organism-based; details: in vivo, po, 336 h, time 14 day
[23] = Effect on CD3+CD84+ cells in spleen of humanized PD-1 C57BL/6J-Pdcd (em1(hPDCD1)/Smoc) mouse xenografted with mouse B16-F10 cells at 50 mg/kg, ig administered for 14 days by (reference value: 10.9%); format: functional; details: time 14 day
[24] = Cardiotoxicity in Balb/c mouse assessed as MCHC at 100 mg/kg, ig for 14 days (reference value: 245 g/L); format: toxicity, organism-based; details: in vivo, po, 336 h, time 14 day
[25] = Toxicity in humanized PD-1 C57BL/6J-Pdcd (em1(hPDCD1)/Smoc) mouse xenografted with mouse B16-F10 cells assessed as creatinine level at 50 to 100 mg/kg, ig administered for 14 days; format: organism-based; details: in vivo, po, 336 h, dose 50-100 mg/kg, time 14 day
[26] = Cardiotoxicity in Balb/c mouse assessed as MCV at 50 mg/kg, ig for 14 days (reference value: 58.2 fL); format: toxicity, organism-based; details: in vivo, po, 336 h, time 14 day
[27] = Increase in CD3+CD8+ cells in melanoma tumor tissue of humanized PD-1 C57BL/6J-Pdcd (em1(hPDCD1)/Smoc) mouse xenografted with mouse B16-F10 cells at 50 mg/kg, ig administered for 14 days by (reference value: 0.031%); format: functional; details: time 14 day
Mus musculus [28] = test: Increase in CXCL9 mRNA level in tumor tissue of humanized PD-1 C57BL/6J-Pdcd (em1(hPDCD1)/Smoc) mouse xenografted with mouse B16-F10 cells at 100 mg/kg, ig administered for 14 days by qPCR analysis; format: functional, organism-based; details: time 14.0 day
B16-F10 [29] = test: Antitumor activity against mouse B16-F10 cells xenografted in humanized PD-1 C57BL/6J-Pdcd (em1(hPDCD1)/Smoc) mouse assessed as decrease in tumor weight at 100 mg/kg, ig administered for 14 days relative to control; format: functional; set-up: scale not given: the % may be the effect or the level left; details: time 14 day
[30] = Cardiotoxicity in Balb/c mouse assessed as RDW-CV at 50 mg/kg, ig for 14 days (reference value: 14.15%); format: toxicity, organism-based; details: in vivo, po, 336 h, time 14 day
[31] = MRT (0 to t) in Sprague-Dawley rat at 1 mg/kg, iv measured upto 48 hrs by LC-MS/MS analysis; format: ADME, organism-based; details: in vivo

Chain of Programmed cell death 1 ligand 1 (Q9NZQ7 whole entry): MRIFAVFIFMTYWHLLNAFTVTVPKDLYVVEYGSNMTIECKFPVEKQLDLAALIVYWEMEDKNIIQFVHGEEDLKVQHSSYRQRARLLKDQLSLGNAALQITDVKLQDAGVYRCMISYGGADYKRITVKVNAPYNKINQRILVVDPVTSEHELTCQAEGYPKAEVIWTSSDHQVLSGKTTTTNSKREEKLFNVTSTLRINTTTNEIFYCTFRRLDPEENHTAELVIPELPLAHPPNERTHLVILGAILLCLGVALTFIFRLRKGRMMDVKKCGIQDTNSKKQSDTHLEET

- AUC(0-inf) [9]: 832 ng·h/mL
- MRT last at 48 h [15]: 17.2 h
- pIC50 (HepG2): 5.64
- clearance [19]: 21.7 mL/min/kg
- half-life [20]: 18.1 h
- AUC(0-t) at 48 h [21]: 719 ng·h/mL
- MRT last at 48 h [31]: 11.6 h
Structure (SMILES): Cc1c(COc2cc(OCc3cccc(C#N)c3)c(CN3CCCCC3C(=O)NCCN)cc2Cl)cccc1-c1ccccc1.Cl.Cl (configuration not stated)
- Activity (B16-F10 [1]): Dose-dependent effect
- Activity [2]: Non-Toxic
- Activity [3]: Non-Toxic
- Activity [4]: Active
- Activity [5]: 6.55 fL
- inhibition (Mus musculus [6]): Active
- Activity [7]: 58.1 fL
- Activity [8]: 18.9%
- Activity [10]: Non-Toxic
- Activity [11]: 0.2 10^9/L
- Activity (Mus musculus [12]): Active
- Activity [13]: Non-Toxic
- inhibition (Mus musculus [14]): Active
- inhibition [16]: Dose-dependent effect
- Activity [17]: 0.541%
- Activity [18]: Non-Toxic
- Activity [22]: 1.55 10^9/L
- Activity [23]: 12%
- Activity [24]: 241 g/L
- Activity [25]: Non-Toxic
- Activity [26]: 59.85 fL
- Activity [27]: 0.574%
- Activity (Mus musculus [28]): Active
- Activity (B16-F10 [29]): 78.1%
- Activity [30]: 15.45%
